From patent publication US11912794B2, “Modulation of structured polypeptide specificity” (BicycleRD Limited, priority 2011, dated 2024)
Where two headings read alike, the source gives them in different places. Numbered stars: 1 amine (or outer) side, 2 acyl side, 3 side chain; on linkers, the order of the positions; unused ones are H or OH. Bridge positions count the residues as written; N and C are the ends. Square brackets hold non-standard residues; d marks the D form. Peptide text beside a SMILES is read from it. Phe(4-guanidino) = N=C(N)Nc1ccc(C[C@H](N)C(=O)O)cc1; Pro(trans-4-Ph) = O=C(O)[C@@H]1C[C@@H](c2ccccc2)CN1; TBMB = c1c(C[*:1])cc(C[*:3])cc1C[*:2]; NMeR = CN[C@@H](CCCNC(=N)N)C(=O)O; hArg = N=C(N)NCCCC[C@H](N)C(=O)O; βAla = NCCC(=O)O

Assays:
human plasma Kallikrein = biological target: T1, human plasma Kallikrein (Homo sapiens, UniProt P03952); test: Functional enzyme inhibition assay, fluorogenic substrate Z-PheArg-AMC; type: biochemical
T1 construct: purchased Stratech, UK
Protocol: Peptides were dissolved as the TFA-salts in their powder form, and stock solutions were usually prepared in water. All solutions were centrifuged and filtered ([…] syringe filters) prior absorption measurement at 280 nm. […] For peptides containing non-natural amino acids with suspected chromophoric properties (i.e. NorHar, 4PhenylPro, 3PaI, 4PaI, Tic, 4GuanPhe, 4,4-BPAI, 3,3-DPA, 1NAI, 2NAI, 4BenzylPro, Ind) concentrations were determined by weighing the powder and dissolving the peptide in a defined quantity of water.

[1] = Plasma stability profiling method 1 (35% plasma, MALDI-TOF, qualitative); type: in vitro ADME, rat; settings: 35% rat plasma, 37 deg C, method 1, comparative estimate
Protocol: Three methods were employed to assess the stability of bicycles (peptides conjugated to molecular scaffolds) in plasma.
A rapid plasma stability profiling assay was developed that employed mass spectrometric detection (MALDI-TOF, Voyager DE, Applied Biosystems) of the parent mass, until the time when the parent peptide mass was no longer observable. Specifically, 200 uM of peptide was incubated in the presence of 35% rat or human plasma (Sera labs, using citrate as anticoagulant) at 37 deg C., which was supplemented with 1×PBS (derived from a 10×PBS Stock, Sigma). At various time points (i.e. t=0, 3, 24 hrs, henceafter daily up to 10 days), 2 uL of sample was added to 18 uL of 30 mM ammonium bicarbonate in a 1:1 mixture of acetonitrile:H2O. Samples were frozen at −80 deg C. until the time of analysis. For mass spectrometric analysis that determines the approximate detection window of the peptide, the acetonitrile:H2O-diluted sample of a given time point was spotted directly (0.7 uL) onto the MALDI plate. Matrix (alpha-cyanocinnamic acid, Sigma, prepared as a saturated solution in 1:1 acetonitrile:water containing 0.1% trifluoroacetic acid) was layered over the sample (1 uL). At a similar laser intensity setting on the MALDI TOF, the time could then be determined until parent peptide was no longer detectable. It should be noted that this is a qualitative assay serves to detect relative changes in plasma stability.

[2] = Plasma stability method 3 (95% plasma, quantitative LC/MS, Biofocus); type: in vitro ADME, rat
Protocol: To obtain plasma stability quantitatively, peptide stock solutions (1 mM in DMSO) were shipped to Biofocus, UK, who performed the analysis. Peptides were diluted to 100 uM with water, and diluted 1:20 in plasma (5 uM final concentration, with the plasma at 95%), sampled as appropriate, precipitated as above, and quantified using a Waters Xevo TQ-MS.

rat plasma Kallikrein = biological target: T2, rat plasma Kallikrein (Rattus norvegicus, UniProt P14272); test: Functional enzyme inhibition assay, fluorogenic substrate Z-PheArg-AMC; type: biochemical
T2 construct: polyhistidine tag with proTEV cleavage site (pro-peptide) (N, cleaved yes); made in house; host or cells: HEK-293 (suspension-adapted)

[3] = biological target: Monkey plasma Kallikrein (mPK) (Macaca mulatta, UniProt A0A1D5Q7U7); test: Target specificity, Ki for orthologous protease; type: biochemical
[4] = Ki (nM) (human kallikrein), Ac-06-34-18(TMB)-NH2 series

T1 sequence (P03952 20-638): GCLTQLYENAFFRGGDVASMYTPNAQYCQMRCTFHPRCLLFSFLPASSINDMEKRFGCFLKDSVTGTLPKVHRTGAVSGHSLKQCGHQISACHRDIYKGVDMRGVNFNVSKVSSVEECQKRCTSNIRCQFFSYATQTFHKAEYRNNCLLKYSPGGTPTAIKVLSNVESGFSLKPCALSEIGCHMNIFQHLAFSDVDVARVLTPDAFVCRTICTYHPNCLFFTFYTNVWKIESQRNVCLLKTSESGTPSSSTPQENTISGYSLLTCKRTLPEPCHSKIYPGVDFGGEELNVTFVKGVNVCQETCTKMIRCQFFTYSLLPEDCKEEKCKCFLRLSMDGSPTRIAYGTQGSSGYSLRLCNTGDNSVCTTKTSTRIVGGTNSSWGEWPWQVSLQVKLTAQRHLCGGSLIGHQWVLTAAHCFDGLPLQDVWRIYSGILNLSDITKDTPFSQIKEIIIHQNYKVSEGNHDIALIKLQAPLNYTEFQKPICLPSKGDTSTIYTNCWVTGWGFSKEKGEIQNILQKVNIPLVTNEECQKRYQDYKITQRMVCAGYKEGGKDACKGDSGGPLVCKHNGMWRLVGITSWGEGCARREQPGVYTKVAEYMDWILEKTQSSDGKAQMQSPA
T2 sequence (P14272 391-638 limits assumed): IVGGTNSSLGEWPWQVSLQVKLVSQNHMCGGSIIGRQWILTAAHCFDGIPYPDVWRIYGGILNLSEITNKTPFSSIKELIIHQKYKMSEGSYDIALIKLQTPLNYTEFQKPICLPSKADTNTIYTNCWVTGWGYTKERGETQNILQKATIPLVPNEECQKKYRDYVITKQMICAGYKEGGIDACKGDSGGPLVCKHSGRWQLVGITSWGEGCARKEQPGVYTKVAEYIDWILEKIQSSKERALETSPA
Monkey plasma Kallikrein (mPK), sequence (A0A1D5Q7U7 391-638): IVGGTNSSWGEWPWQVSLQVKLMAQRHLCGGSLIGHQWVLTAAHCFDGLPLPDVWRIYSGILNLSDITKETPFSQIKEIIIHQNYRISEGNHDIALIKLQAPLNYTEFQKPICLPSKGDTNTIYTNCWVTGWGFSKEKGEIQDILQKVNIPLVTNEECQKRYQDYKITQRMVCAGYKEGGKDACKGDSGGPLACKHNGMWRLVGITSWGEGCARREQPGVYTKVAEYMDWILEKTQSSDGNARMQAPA

| Structure (SMILES) | Ki (human plasma Kallikrein; [4]) [nM] | Observable in rat plasma, for days [1] [days] | t1/2 (hrs) in rat plasma ([2]; rat, plasma, 5 uM) [h] | further results |
| --- | --- | --- | --- | --- |
| CC(=O)N[C@H]1CSCc2cc3cc(c2)CSC[C@H](NC(=O)[C@H](CCCNC(=N)N)N(C)C(=O)[C@H](Cc2ccc(O)cc2)NC(=O)[C@@H]2CCCN2C(=O)[C@H](Cc2ccccc2)NC(=O)[C@H](CO)NC1=O)C(=O)N[C@@H](CC(C)C)C(=O)N[C@@H](Cc1c[nH]cn1)C(=O)N[C@@H](CCC(N)=O)C(=O)N[C@@H](CC(=O)O)C(=O)N[C@@H](CC(C)C)C(=O)N[C@H](C(N)=O)CSC3 [Ac-(06-34-18) Phe2 Tyr4 NMeArg5] (Ac-CSFPY[NMeR]CLHQDLC-NH2; linker 1-7-13 via TBMB) | 3.56 | >10 | >20 | – |
| CC(=O)N[C@H]1CSCc2cc3cc(c2)CSC[C@H](NC(=O)[C@H](CCCNC(=N)N)NC(=O)[C@H](Cc2ccc(O)cc2)NC(=O)[C@@H]2CCCN2C(=O)[C@H](Cc2ccccc2)NC(=O)[C@H](CO)NC1=O)C(=O)N[C@@H](CC(C)C)C(=O)N[C@@H](Cc1c[nH]cn1)C(=O)N[C@@H](CCC(N)=O)C(=O)N[C@@H](CC(=O)O)C(=O)N[C@@H](CC(C)C)C(=O)N[C@H](C(N)=O)CSC3 [Ac-(06-34-18) FPYR] (Ac-CSFPYRCLHQDLC-NH2; linker 1-7-13 via TBMB) | 0.46 | 2 | 0.9 | – |
| CSCC[C@@H]1NC(=O)[C@@H]2CSCc3cc(cc(c3)CSC[C@@H](C(=O)N[C@@H](C)C(N)=O)NC(=O)[C@H](CC(C)C)NC(=O)[C@H](CC(=O)O)NC(=O)[C@H](CCC(N)=O)NC(=O)[C@H](Cc3c[nH]cn3)NC1=O)CSC[C@H](NC(=O)[C@H](C)N)C(=O)N[C@@H](CCCNC(=N)N)C(=O)N[C@@H](Cc1c[nH]c3ccccc13)C(=O)N1CCC[C@H]1C(=O)N[C@@H](C)C(=O)N[C@@H](CCCNC(=N)N)C(=O)N2 [Peptide 06-34-04] (H-ACRWPARCMHQDLCA-NH2; linker 2-8-14 via TBMB; N-terminus and C-terminus assumed) | – | – | – | IC50 (rat plasma Kallikrein): 0.56 nM |
| CC(=O)N[C@H]1CSCc2cc3cc(c2)CSC[C@H](NC(=O)[C@H](Cc2ccc(NC(=N)N)cc2)NC(=O)[C@H](Cc2ccc(O)cc2)NC(=O)[C@@H]2CCCN2C(=O)[C@H](Cc2ccccc2)NC(=O)[C@H](CO)NC1=O)C(=O)N[C@@H](CC(C)C)C(=O)N[C@@H](Cc1c[nH]cn1)C(=O)N[C@@H](CCC(N)=O)C(=O)N[C@@H](CC(=O)O)C(=O)N[C@@H](CC(C)C)C(=O)N[C@H](C(N)=O)CSC3 [Ac-(06-34-18) Phe2 Tyr4 4GuanPhe5] (Ac-CSFPY[Phe(4-guanidino)]CLHQDLC-NH2; linker 1-7-13 via TBMB) | 0.4 | >10 | 5.0 | – |
| C[C@H](N)C(=O)N[C@H]1CSCc2cc3cc(c2)CSC[C@H](NC(=O)[C@H](CCCNC(=N)N)NC(=O)[C@H](C)NC(=O)[C@@H]2CCCN2C(=O)[C@H](Cc2c[nH]c4ccccc24)NC(=O)[C@H](CCCNC(=N)N)NC1=O)C(=O)N[C@@H]([C@@H](C)O)C(=O)N[C@@H](Cc1c[nH]cn1)C(=O)N[C@@H](CCC(N)=O)C(=O)N[C@@H](CC(N)=O)C(=O)N[C@@H](Cc1ccc(O)cc1)C(=O)N[C@H](C(=O)N[C@@H](C)C(N)=O)CSC3 [Peptide 06-54] (H-ACRWPARCTHQNYCA-NH2; linker 2-8-14 via TBMB; N-terminus and C-terminus assumed) | – | – | – | Ki [3]: 6 nM |
| CC(C)[C@@H]1NC(=O)[C@H](CCCNC(=N)N)NC(=O)[C@@H]2CSCc3cc(cc(c3)CSC[C@@H](C(=O)N[C@@H](C)C(N)=O)NC(=O)[C@H](CC(N)=O)NC1=O)CSC[C@H](NC(=O)[C@H](C)N)C(=O)N[C@@H](Cc1ccccc1)C(=O)N[C@@H](CCCCN)C(=O)N[C@@H](C)C(=O)N2 [Peptide 3B3] | – | – | – | Ki [3]: 11 nM |
| CC(=O)N[C@H]1CSCc2cc3cc(c2)CSC[C@H](NC(=O)[C@H](CCCCNC(=N)N)NC(=O)[C@H](Cc2ccc(O)cc2)NC(=O)[C@@H]2CCCN2C(=O)[C@H](Cc2ccccc2)NC(=O)[C@H](CO)NC1=O)C(=O)N[C@@H](CC(C)C)C(=O)N[C@@H](Cc1c[nH]cn1)C(=O)N[C@@H](CCC(N)=O)C(=O)N[C@@H](CC(=O)O)C(=O)N[C@@H](CC(C)C)C(=O)N[C@H](C(N)=O)CSC3 [Ac-(06-34-18) Phe2 Tyr4 HomoArg5] (Ac-CSFPY[hArg]CLHQDLC-NH2; linker 1-7-13 via TBMB) | – | >10 | 12.2 | rat plasma stability enhanced by a factor ([2]; vs parent Phe2Tyr4 peptide): 13 |
| CC(C)C[C@@H]1NC(=O)[C@H](CC(=O)O)NC(=O)[C@H](CCC(N)=O)NC(=O)[C@H](Cc2c[nH]cn2)NC(=O)[C@H](CC(C)C)NC(=O)[C@@H]2CSCc3cc(cc(c3)CSC[C@@H](C(=O)N[C@@H](C)C(N)=O)NC1=O)CSC[C@H](NC(=O)[C@H](C)N)C(=O)N[C@@H](CO)C(=O)N[C@@H](Cc1c[nH]c3ccccc13)C(=O)N1CCC[C@H]1C(=O)N[C@@H](C)C(=O)N[C@@H](CCCNC(=N)N)C(=O)N2 [Peptide 06-34-18] (H-ACSWPARCLHQDLCA-NH2; linker 2-8-14 via TBMB) | – | – | – | IC50 (human plasma Kallikrein): 0.07 nM; IC50 (rat plasma Kallikrein): 0.56 nM |
| CC(=O)N[C@H]1CSCc2cc3cc(c2)CSC[C@H](NC(=O)[C@H](CCCNC(=N)N)NC(=O)[C@H](C)NC(=O)[C@@H]2C[C@@H](c4ccccc4)CN2C(=O)[C@H](Cc2c[nH]c4ccccc24)NC(=O)[C@H](CO)NC1=O)C(=O)N[C@@H](CC(C)C)C(=O)N[C@@H](Cc1c[nH]cn1)C(=O)N[C@@H](CCC(N)=O)C(=O)N[C@@H](CC(=O)O)C(=O)N[C@@H](CC(C)C)C(=O)N[C@H](C(N)=O)CSC3 [Ac-(06-34-18) 4Phenyl Pro3] (Ac-CSW[Pro(trans-4-Ph)]ARCLHQDLC-NH2; linker 1-7-13 via TBMB) | 0.58 | 2 | – | – |
| CC(=O)N[C@H]1CSCc2cc3cc(c2)CSC[C@H](NC(=O)[C@H](CCCNC(=N)N)NC(=O)CCNC(=O)[C@@H]2CCCN2C(=O)[C@H](Cc2c[nH]c4ccccc24)NC(=O)[C@H](CO)NC1=O)C(=O)N[C@@H](CC(C)C)C(=O)N[C@@H](Cc1c[nH]cn1)C(=O)N[C@@H](CCC(N)=O)C(=O)N[C@@H](CC(=O)O)C(=O)N[C@@H](CC(C)C)C(=O)N[C@H](C(N)=O)CSC3 [Ac-(06-34-18) β-Ala4] (Ac-CSWP[βAla]RCLHQDLC-NH2; linker 1-7-13 via TBMB) | – | 10 | – | Ki (human plasma Kallikrein; text b279, read-out: affinity to Kallikrein): ~20000 nM |
| CC(=O)N[C@H]1CSCc2cc3cc(c2)CSC[C@H](NC(=O)[C@H](CCCNC(=N)N)NC(=O)[C@H](C)NC(=O)[C@@H]2CCCN2C(=O)[C@H](Cc2c[nH]c4ccccc24)NC(=O)[C@H](CO)NC1=O)C(=O)N[C@@H](CC(C)C)C(=O)N[C@@H](Cc1c[nH]cn1)C(=O)N[C@@H](CCC(N)=O)C(=O)N[C@@H](CC(=O)O)C(=O)N[C@@H](CC(C)C)C(=O)N[C@H](C(N)=O)CSC3 [Ac-(06-34-18) wildtype] | – | – | – | Observable in rat plasma, for days ([1]; listed as Ac-06-34-18(TMB)-NH2): about 2 days; t1/2 (hrs) in rat plasma ([2]; method 3, quantitative, listed as Ac-06-34-18(TMB)-NH2): about 2 hrs |
